Results taken from US20130096119A1, “Isoquinolin-3-Ylurea Derivatives” (priority 2010, published 2013).
Converted amounts (≈) assume the structure as drawn.

Test system: S. pneumoniae ATCC 49619
Assay: Minimal inhibitory concentration (MIC) by microdilution method (CLSI M7-A7)
Assay type: cell-based, Streptococcus pneumoniae
Conditions: for MIC: Streptococcus pneumoniae, ATCC49619, cation-adjusted Mueller-Hinton Broth supplemented with 3% (v/v) lysed horse blood; for MIC for S. pneumoniae ATCC 49619: cation-adjusted Mueller-Hinton Broth supplemented with 3% (v/v) lysed horse blood
Summary of the method: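 Broth microdilution per CLSI M7-A7 in cation-adjusted Mueller-Hinton broth, supplemented with 3% (v/v) lysed horse blood for S. pneumoniae; MIC reported in mg/l.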

Molecule: CCNC(=O)Nc1cc2cc(NC(=O)c3ccccc3)cc(C)c2cn1 [Example 106, N-[3-(3-ethyl-ureido)-8-methyl-isoquinolin-6-yl]-benzamide]
- MIC: 0.125 µg/mL (≈ 0.359 µM)

Molecule: CCNC(=O)Nc1cc2c(-c3cscn3)ccc(C)c2cn1.Cl [Example 285, 1-ethyl-3-(8-methyl-5-thiazol-4-yl-isoquinolin-3-yl)-urea hydrochloride]
- MIC: 2 µg/mL

Molecule: 1-(8-chloro-5-pyrimidin-4-yl-isoquinolin-3-yl)-3-ethyl-urea [Example 289]
- MIC for S. pneumoniae ATCC 49619: 2 µg/mL

Molecule: CCNC(=O)Nc1cc2c(-c3ccncc3)ccc(Nc3cccc(OC)n3)c2cn1 [Example 217, 1-ethyl-3-[8-(6-methoxy-pyridin-2-ylamino)-5-pyridin-4-yl-isoquinolin-3-yl]-urea]
- MIC: 0.5 µg/mL (≈ 1.21 µM)

Molecule: CCNC(=O)Nc1cc2cccc(Nc3ccc(CC(=O)O)cc3)c2cn1 [Example 205, {4-[3-(3-ethyl-ureido)-isoquinolin-8-ylamino]phenyl}-acetic acid]
- MIC: 4 µg/mL (≈ 11 µM)

Molecule: CCNC(=O)Nc1cc2cccc(CNc3ccc(OC)nc3)c2cn1.Cl [Example 302, 1-ethyl-3-{8-[(6-methoxy-pyridin-3-ylamino)-methyl]-isoquinolin-3-yl}-urea hydrochloride]
- MIC: 8 µg/mL

Molecule: CCNC(=O)Nc1cc2cc(-c3ccncc3)cc(C)c2cn1 [Example 21, 1-ethyl-3-(8-methyl-6-pyridin-4-yl-isoquinolin-3-yl)-urea]
- MIC: 1 µg/mL (≈ 3.26 µM)

Molecule: 1-ethyl-3-[8-(5-hydroxymethyl-imidazol-1-ylmethyl)-isoquinolin-3-yl]-urea and 1-ethyl-3-[8-(4-hydroxymethyl-imidazol-1-ylmethyl)-isoquinolin-3-yl]-urea [Example 293]
- MIC for S. pneumoniae ATCC 49619: 4 µg/mL

Molecule: CCNC(=O)Nc1cc2cccc(COc3ccc(C)nc3)c2cn1.Cl [Example 256, 1-ethyl-3-[8-(6-methyl-pyridin-3-yloxymethyl)-isoquinolin-3-yl]-urea hydrochloride]
- MIC: 8 µg/mL

Molecule: CCNC(=O)Nc1cc2cc(NCc3ccccc3)cc(Nc3cccnc3)c2cn1 [Example 239, 1-[6-benzylamino-8-(pyridin-3-ylamino)-isoquinolin-3-yl]-3-ethyl-urea]
- MIC: 0.5 µg/mL (≈ 1.21 µM)

Molecule: CCNC(=O)Nc1cc2c(-c3ccncc3)ccc(C)c2cn1 [Example 61, 1-ethyl-3-(8-methyl-5-pyridin-4-yl-isoquinolin-3-yl)-urea]
- MIC: 1 µg/mL (≈ 3.26 µM)

Molecule: CCNC(=O)Nc1cc2c(-c3cccc(CO)c3)ccc(C)c2cn1 [Example 12, 1-ethyl-3-[5-(3-hydroxymethyl-phenyl)-8-methyl-isoquinolin-3-yl]-urea]
- MIC: 8 µg/mL (≈ 23.9 µM)

Molecule: CCNC(=O)Nc1cc2c(F)ccc(NCc3cccnc3)c2cn1 [Example 55, 1-ethyl-3-{5-fluoro-8-[(pyridin-3-ylmethyl)-amino]-isoquinolin-3-yl}-urea]
- MIC: 8 µg/mL (≈ 23.6 µM)

Molecule: CCNC(=O)Nc1cc2c(-c3ccnc(OC)c3)ccc(Nc3cccnc3)c2cn1 [Example 225, 1-ethyl-3-[5-(2-methoxy-pyridin-4-yl)-8-(pyridin-3-ylamino)-isoquinolin-3-yl]urea]
- MIC: 0.125 µg/mL (≈ 0.302 µM)

Molecule: CCNC(=O)Nc1cc2c(F)c(NCc3ccccc3)cc(-c3cnc(OC)nc3)c2cn1 [Example 110, 1-[6-benzylamino-5-fluoro-8-(2-methoxy-pyrimidin-5-yl)-isoquinolin-3-yl]-3-ethyl-urea]
- MIC: 1 µg/mL (≈ 2.24 µM)

Molecule: CCNC(=O)Nc1cc2c(F)c(-c3cccc(NC(C)=O)c3)cc(-c3cnc(OC)nc3)c2cn1 [Example 114, N-{3-[3-(3-ethyl-ureido)-5-fluoro-8-(2-methoxy-pyrimidin-5-yl)-isoquinolin-6-yl]-phenyl}-acetamide]
- MIC: 0.5 µg/mL (≈ 1.05 µM)

Molecule: CCNC(=O)Nc1cc2cccc(Nc3ccc(OC)c(C(=O)NC)c3)c2cn1 [Example 243, 5-[3-(3-ethyl-ureido)-isoquinolin-8-ylamino]-2-methoxy-N-methyl-benzamide]
- MIC: 1 µg/mL (≈ 2.54 µM)

Molecule: CCNC(=O)Nc1cc2cccc(Nc3cccc(C(=O)OC)c3)c2cn1 [Example 176, 3-[3-(3-ethyl-ureido)-isoquinolin-8-ylamino]-benzoic acid methyl ester]
- MIC: 2 µg/mL (≈ 5.49 µM)

Molecule: C=Cc1cc(C)c2cnc(NC(=O)NCC)cc2c1 [Example 216, 1-ethyl-3-(8-methyl-6-vinyl-isoquinolin-3-yl)-urea]
- MIC: 8 µg/mL (≈ 31.3 µM)

Molecule: CCNC(=O)Nc1cc2cc(-c3cncc(C)c3)cc(Nc3cccnc3)c2cn1 [Example 237, 1-ethyl-3-[6-(5-methyl-pyridin-3-yl)-8-(pyridin-3-ylamino)-isoquinolin-3-yl]-urea]
- MIC: 0.25 µg/mL (≈ 0.627 µM)

Molecule: CCNC(=O)Nc1cc2cccc(CNc3cc(C)ns3)c2cn1 [Example 192, 1-ethyl-3-{8-[(3-methyl-isothiazol-5-ylamino)-methyl]-isoquinolin-3-yl}-urea]
- MIC: 2 µg/mL (≈ 5.86 µM)

Molecule: CCNC(=O)Nc1cc2cc(-c3cscc3C)cc(C)c2cn1 [Example 80, 1-ethyl-3-[8-methyl-6-(4-methyl-thiophen-3-yl)-isoquinolin-3-yl]-urea]
- MIC: 16 µg/mL (≈ 49.2 µM)

Molecule: CCNC(=O)Nc1cc2cccc(Nc3cncc(F)c3)c2cn1.Cl [Example 159, 1-ethyl-3-[8-(5-fluoro-pyridin-3-ylamino)-isoquinolin-3-yl]-urea hydrochloride]
- MIC: 2 µg/mL

Molecule: CCNC(=O)Nc1cc2cccc(COc3ccc(C)cn3)c2cn1.Cl [Example 257, 1-ethyl-3-[8-(5-methyl-pyridin-2-yloxymethyl)-isoquinolin-3-yl]-urea hydrochloride]
- MIC: 8 µg/mL

Molecule: CCNC(=O)Nc1cc2c(-c3ccc(C(=O)NC)cc3)ccc(C)c2cn1 [Example 6, 4-[3-(3-ethyl-ureido)-8-methyl-isoquinolin-5-yl]-N-methyl-benzamide]
- MIC: 0.5 µg/mL (≈ 1.38 µM)

Molecule: CCNC(=O)Nc1cc2c(-c3ccccc3O)ccc(C)c2cn1 [Example 3, 1-ethyl-3-[5-(2-hydroxy-phenyl)-8-methyl-isoquinolin-3-yl]-urea]
- MIC: 1 µg/mL (≈ 3.11 µM)

Molecule: CCNC(=O)Nc1cc2cc(-c3ccc4c(c3)OCO4)cc(C)c2cn1 [Example 77, 1-(6-(benzo[1,3]dioxol-5-yl)-8-methyl-isoquinolin-3-yl)-3-ethyl-urea]
- MIC: 1 µg/mL (≈ 2.86 µM)

Molecule: CCNC(=O)Nc1cc2cc(-c3ccncc3Cl)cc(C)c2cn1 [Example 98, 1-[6-(3-chloro-pyridin-4-yl)-8-methyl-isoquinolin-3-yl]-3-ethyl-urea]
- MIC: 4 µg/mL (≈ 11.7 µM)

Molecule: CCNC(=O)Nc1cc2cc(-c3cccc(CO)c3)cc(C)c2cn1 [Example 19, 1-ethyl-3-[6-(3-hydroxymethyl-phenyl)-8-methyl-isoquinolin-3-yl]-urea]
- MIC: 1 µg/mL (≈ 2.98 µM)

Molecule: CCNC(=O)Nc1cc2c(-c3ccc(CO)cc3)ccc(Nc3cccc(C(=O)NC)c3)c2cn1 [Example 250, 3-[3-(3-ethyl-ureido)-5-(4-hydroxymethyl-phenyl)-isoquinolin-8-ylamino]-N-methyl-benzamide]
- MIC: 1 µg/mL (≈ 2.13 µM)

Molecule: CCNC(=O)Nc1cc2cccc(Nc3ccc(OC)cn3)c2cn1 [Example 181, 1-ethyl-3-[8-(5-methoxy-pyridin-2-ylamino)-isoquinolin-3-yl]-urea]
- MIC: 8 µg/mL (≈ 23.7 µM)

Molecule: CCNC(=O)Nc1cc2cc(-c3ccsc3)cc(C)c2cn1 [Example 93, 1-ethyl-3-(8-methyl-6-thiophen-3-yl-isoquinolin-3-yl)-urea]
- MIC: 2 µg/mL (≈ 6.42 µM)

Molecule: CCNC(=O)Nc1cc2c(-c3ccc(CO)cc3)ccc(Nc3cccc(C(=O)O)c3)c2cn1 [Example 249, 3-[3-(3-ethyl-ureido)-5-(4-hydroxymethyl-phenyl)-isoquinolin-8-ylamino]-benzoic acid]
- MIC: 0.5 µg/mL (≈ 1.1 µM)

Molecule: CCNC(=O)Nc1cc2c(-c3ccncn3)ccc(C)c2cn1 [Example 278, 1-ethyl-3-(8-methyl-5-pyrimidin-4-yl-isoquinolin-3-yl)-urea]
- MIC: 2 µg/mL (≈ 6.51 µM)

Molecule: CCNC(=O)Nc1cc2c(-c3cccnn3)ccc(C)c2cn1.Cl [Example 282, 1-ethyl-3-(8-methyl-5-pyridazin-3-yl-isoquinolin-3-yl)-urea hydrochloride]
- MIC: 8 µg/mL

Molecule: CCNC(=O)Nc1cc2cccc(Cn3ccnc3)c2cn1 [Example 299, 1-ethyl-3-(8-imidazol-1-ylmethyl-isoquinolin-3-yl)-urea]
- MIC: 4 µg/mL (≈ 13.5 µM)

Molecule: CCNC(=O)Nc1cc2c(F)ccc(NCc3ccccc3)c2cn1 [Example 56, 1-(8-benzylamino-5-fluoro-isoquinolin-3-yl)-3-ethyl-urea]
- MIC: 8 µg/mL (≈ 23.6 µM)

Molecule: CCNC(=O)Nc1cc2c(Br)ccc(OC)c2cn1 [Example 73, 1-(5-bromo-8-methoxy-isoquinolin-3-yl)-3-ethyl-urea]
- MIC: 8 µg/mL (≈ 24.7 µM)

Molecule: CCNC(=O)Nc1cc2cccc(-c3ccc(C(=O)O)cc3)c2cn1 [Example 123, 4-[3-(3-ethyl-ureido)-isoquinolin-8-yl]-benzoic acid]
- MIC: 4 µg/mL (≈ 11.9 µM)

Molecule: CCNC(=O)Nc1cc2cc(N)cc(C)c2cn1 [Example 54, 1-(6-amino-8-methyl-isoquinolin-3-yl)-3-ethyl-urea]
- MIC: 16 µg/mL (≈ 65.5 µM)

Molecule: CCNC(=O)Nc1cc2cccc(COc3ccncc3C(=O)OC)c2cn1.Cl [Example 212, 4-[3-(3-ethyl-ureido)-isoquinolin-8-ylmethoxy]-nicotinic acid methyl ester hydrochloride]
- MIC: 8 µg/mL

Molecule: CCNC(=O)Nc1cc2cccc(COc3cccnc3C)c2cn1.Cl [Example 259, 1-ethyl-3-[8-(2-methyl-pyridin-3-yloxymethyl)-isoquinolin-3-yl]-urea hydrochloride]
- MIC: 4 µg/mL

Molecule: CCNC(=O)Nc1cc2c(-c3cccc4[nH]ccc34)ccc(C)c2cn1 [Example 69, 1-ethyl-3-[5-(1H-indol-4-yl)-8-methyl-isoquinolin-3-yl]-urea]
- MIC: 16 µg/mL (≈ 46.5 µM)

Molecule: CCNC(=O)Nc1cc2c(-c3ccccc3)cccc2cn1 [Example 43, 1-ethyl-3-(5-phenyl-isoquinolin-3-yl)-urea]
- MIC: 8 µg/mL (≈ 27.5 µM)

Molecule: CCNC(=O)Nc1cc2cc(NCc3ccc4cc[nH]c4c3)cc(C)c2cn1.Cl [Example 134, 1-ethyl-3-{6-[(1H-indol-6-ylmethyl)-amino]-8-methyl-isoquinolin-3-yl}-urea hydrochloride]
- MIC: 16 µg/mL

Molecule: CCNC(=O)Nc1cc2cccc(Nc3ccncn3)c2cn1 [Example 151, 1-ethyl-3-[8-(pyrimidin-4-ylamino)-isoquinolin-3-yl]-urea]
- MIC: 4 µg/mL (≈ 13 µM)
